In US20100273740A1 (priority 2004, published 2010):
≈ marks a conversion by molar mass, not a printed value.

Tests used:
[1] = Cell viability of uninfected human foreskin fibroblast drug control wells; type: cell-based; settings: uninfected human foreskin fibroblast cells; read-out: Cytotoxic Conc. (IC50) Cell Growth
Vero cells = experiment: cells; type: cell-based; settings: Chlorocebus sabaeus, read-out: Inhibitory Conc. (IC50) Cell Growth
[2] = system: Urbani strain of SARS CoV; experiment: organism not typed; type: cell-based; settings: Vero, read-out: Effective Conc. (EC50) Against SARS CoV
SARS = settings: cited from earlier work
[3] = cited from earlier work
SARS-CoV = settings: cited from earlier work

Molecule: CCCCCCCCCCOC(CNC(=O)CCCCCCCCC)COP(=O)([O-])OCC[N+](C)(C)C (stereo not shown) [NHCOC9H19 OC9H18CH3 PC, 3-decanamido-2-decyloxypropyl-1-phosphocholine]
- IC50 [1]: 75 µg/mL (≈ 136 µM)

Molecule: CCCCCCCCCCCC(=O)NCC(COP(=O)([O-])OCC[N+](C)(C)C)OCCCC (stereo not shown) [NHCOC11H23 OC3H6CH3 PC, 3-dodecanamido-2-butyloxypropyl-1-phosphocholine]
- IC50 (Vero cells): 40 µg/mL (≈ 80.9 µM)
- EC50 [2]: 3 µg/mL (≈ 6.06 µM)

Molecule: NC(=O)c1ncn([C@@H]2O[C@H](CO)[C@@H](O)[C@H]2O)n1 [Ribavirin, 1-β-D-ribofuranosyl-1-1,2,4-triazole-3-carboxamide]
- Benefit in SARS patients (SARS): has not been observed to be of benefit
- Patients with serum amino transferase levels reduced to normal [3]: 40%
- Effect on viral serum levels ([3]; patients): does not lower viral serum levels

Molecule: interferon beta
- Activity in vitro against SARS-CoV (SARS-CoV): effective in vitro against SARS-CoV
